Laboratory results from patent publication US20150246137A1, “LIPID COATED NANOPARTICLES CONTAINING AGENTS HAVING LOW AQUEOUS AND LIPID SOLUBILITIES AND METHODS THEREOF” (THE UNIVERSITY OF NORTH CAROLINA AT CHAPEL HILL, priority 2012, published 2015).
“Also recorded” adds a separate entry of the source.

Experiments:
[1] = tested on: A375M melanoma xenograft tumors; test: In vivo anticancer efficacy, A375M xenograft; design: species or system nude mice; conditions: weekly IV, 1.0 mg/kg Pt
Procedure: All procedures involving experimental mice are performed in accordance with the protocols conformed to the Guide for the Care and Use of Laboratory Animals (NIH publication No. 86-23, revised 1985). Female athymic nude mice, 5-6 weeks old and weighing 18-22 g were obtained. 5×10^6 A375M cells were injected subcutaneously into the mice. After 10 days, the mice were randomly divided into four groups (4-6 mice per group). The mice were treated with weekly IV injections of CDDP and LPC NPs and saline as a control. A dose of 1.0 mg/kg Pt was administered. Thereafter, tumor growth and body weight were monitored. Tumor volume was calculated using the following formula: TV=(L×W^2)/2, with W being smaller than L. Finally, mice were sacrificed using a CO2 inhalation method.
After the therapeutic experiment was complete, blood samples were collected and allowed to clot for 2 h at room temperature. […] For liver and renal function experiments, the levels of aspartate aminotransferase, alanine aminotransferase, and blood urea nitrogen in the serum were measured. […]
The tumors were fixed in 4.0% paraformaldehyde (PFA), paraffin-embedded, and sectioned. […] TUNEL-positive nuclei were monitored by using a fluorescence microscope (Nikon, Tokyo, Japan). […] TUNEL-positive cells in three slides of images taken at 40× magnification were counted to quantify apoptosis.

A375M cells [2] = test: In vitro neighboring effect study (co-culture, Annexin V); assay type: cell-based, human; conditions: 48 h co-culture 1:10, A375M-GFP pretreated 50 μM Pt 4 h
Procedure: A375M-GFP cells (2×10^5) were seeded in 6-well plates (Corning Inc., Corning, N.Y.) 20 h before the beginning of the experiments. […] The A375M-GFP cells were mixed with A375M cells at the ratio of 1:10 (total cell number: 2×10^5) and reseeded into 6-well plates. After culturing for 48 h, the cells were stained with Hoechst 33342 (Sigma, St Louis, Mo.) and Annexin V Alexa Fluor® 568 Conjugate (Invitrogen, Carlsbad, Calif.). […] Results were processed using the Cellquest software (Becton-Dickinson).

[3] = Biodistribution of Pt in A375M tumor-bearing mice; assay type: in vivo; conditions: twenty-four hours post-IV injection, 1.0 mg/kg Pt
Procedure: […] Tissue samples were digested by concentrated nitric acid overnight at room temperature and processed according to the procedure reported previously the literature.119, 120 The concentration of Pt was measured using ICP-MS.

1205Lu xenograft tumors = test: In vivo anticancer efficacy, 1205Lu xenograft; design: species or system nude mice; conditions: 2.0 mg/kg Pt
Procedure: Female athymic nude mice, 5-6 weeks old and weighing 18-22 g were obtained. 1205Lu xenograft tumors were developed through subcutaneous injection of approximately 5 million 1205Lu cells in female nude mice. […] Tumor growth and body weight were monitored. Tumor volume was calculated using the following formula: TV=(L×W^2)/2, with W being smaller than L. Finally, mice were sacrificed by CO2 inhalation. Tumors were collected after treatment and were formalin fixed and processed for TUNEL assay.
The tumors were fixed in 4.0% paraformaldehyde (PFA) and subsequently paraffin-embedded and sectioned. To detect apoptotic cells in tumor tissues, a TUNEL assay, using a DeadEnd™ Fluorometric TUNEL System (Promega, Madison, Wis.), was performed, following the manufacturer's protocol. Cell nuclei, which were stained with green fluorescence, are defined as TUNEL-positive nuclei. TUNEL-positive nuclei were monitored using a fluorescence microscope (Nikon, Tokyo, Japan). The cell nuclei were stained with 4, 6-diaminidino-2-phenyl-indole (DAPI) (Vectashield, Vector Laboratories, Inc., Burlingame, Calif.). To quantify TUNEL-positive cells, green-fluorescence-positive cells are counted in three images taken at 40× magnification.

[4] = Kidney and liver function parameters; assay type: in vivo, mice
Description: To evaluate the kidney toxicity, organs were taken for histopathological observation using H&E staining. […] We also did a pathologic examination by H&E staining of other major organs (liver, lung, spleen and heart) from mice that received long-term treatments (not shown). […] Finally, we tested the blood parameters. Levels of secreted liver enzymes (AST and ALT), and blood urea nitrogen were all unchanged after a four-dose treatment with LPC or LPI, indicating a lack of damage to the liver and the kidneys (Table 2).
After the therapeutic experiment was complete, blood samples were collected and allowed to clot for 2 h at room temperature. Serum was obtained through centrifugation for 20 min at 2,000 g. For liver and renal function experiments, the levels of aspartate aminotransferase, alanine aminotransferase, and blood urea nitrogen in the serum were measured. Major organs were collected after treatment and were formalin fixed and processed for routine H&E staining using standard methods. Images were collected using a Nikon light microscope (Nikon). After the A375M tumor reached 600 mm^3, the mice were treated with two weekly IV injections of LPC NPs at a dose of 3.0 mg/kg Pt. Seven days post the last injection, the mice were sacrificed and the tumors are assayed with TUNEL.

1205Lu cells = test: Cell toxicity assay (MTS); assay type: cell-based, human; conditions: 48 h
Procedure: (§1) 1205Lu cells were seeded in 96-well plates at a density of 2000 cells/well and incubated in 10% FBS of DMEM containing 100 U/mL penicillin, and […] streptomycin for 20 h. Then, the medium was removed and replaced by Opti-MEM containing CDDP or LPC NPs. Forty-eight hours later, a CellTiter 96 AQueous One Solution Cell Proliferation Assay (Promega, Madison, Wis.) kit containing the tetrazolium compound MTS was used to assay cell viability according to the manufacturer's protocols.

[5] = H&E histopathology of organs; assay type: in vivo, mice; conditions: long-term treatments
A375M cells [6] = test: Cell toxicity assay (MTS); assay type: cell-based, human; conditions: 48 h, read-out: IC50, growth inhibition
Procedure: as §1, with “A375M” for “1205Lu”, “penicillin” for “penicillin,”, “The” for “Then, the”, “protocols. The IC50 values were calculated using Graphpad Prism 5 (Graphpad Software Inc.)” for “protocols.”

H460 cells [7] = test: Cell cycle analysis (flow cytometry); assay type: cell-based, human; conditions: H460, 24 h
Procedure: H460 cells (2×10^5) were seeded in 6-well plates 24 h prior to the treatment. The formulations, IEP-PEG, IEP-PEG AA, InCl3, free liposome and free drug were added and incubated for 24 h at 37° C., humidified CO2 incubator. The cells were trypsinized and washed with PBS followed by fixation in pre-cooled 70% ethanol at −20° C. for at least 1 h. Fixed cells were washed with PBS staining buffer (BD Pharmingen, San Diego, Calif.) and incubated with RNAase (final concentration […]) at 37° C. for 30 min, followed by incubation with […] propidium iodide (PI) at room temperature for 30 min. Finally, cells were washed and suspended in PBS, and analyzed with a FACS Canto flow cytometer (BD Biosciences) to measure the PI intensity, which correlates with the DNA content in the cell cycle. A total of 20,000 events are acquired for each sample and data were analyzed with FACS Diva software (BD Biosciences).

PARP-1 = test: Western blot analysis for PARP; assay type: cell-based, human; conditions: H460 cells
Procedure: Forty micrograms of protein per lane was resolved by 4%-12% SDS-PAG Electrophoresis (Invitrogen) before being transferred to polyvinylidenedifluoride (PVDF) membranes (Bio-Rad). The membranes were blocked for 1 h with 5% skim milk at room temperature and then incubated with mouse monoclonal poly (ADPribose) polymerase-1 (PARP-1) antibodies (1:500 dilution; Santa Cruz biotechnology, Inc.) and with β-actin antibody (1:4000 dilution; Santa Cruz biotechnology, Inc.) overnight at 4° C. β-actin was probed as the loading control. The membranes were washed 3 times and then incubated with a secondary antibody (1:4000 dilutions; Santa Cruz biotechnology, Inc.) at room temperature for 1 h. Goat anti-mouse secondary antibody is used for PARP and β-actin primary antibody. Finally, the membranes were washed 4 times and developed by an enhanced chemiluminescence system according to the manufacturer's instructions (Thermo scientific).

caspase-3/7 = test: Caspase activation assay; assay type: cell-based, human; conditions: NCI H-460 cells, 24 h
Procedure: H460 cells (2×10^5) were treated as mentioned above with all formulations. The cells were lysed with a radio-immunoprecipitation assay (RIPA) buffer that was supplemented with a protease inhibitor cocktail (Promega, Madison, Wis.). The protein lysates were collected by centrifugation at 14,000 rpm for 10 min at 4° C. Protein concentrations were determined using the BCA assay kit (Pierce Biotechnology) following the manufacturer's recommendations. Thirty micrograms protein of each sample was used to detect caspase-3/7 activity of the cell lysates by using an in vitro assay kit according to the manufacturer's instructions (Promega).

H460 cells [8] = test: In vitro cell viability assay (MTT); assay type: cell-based, human; conditions: NCI-H460, 36 h
Procedure: In vitro cell viability of IEP nanoparticles was determined by using the 3-[4,5-dimethylthiazol-2-yl]-2,5-diphenyltetrazolium bromide (MTT) assay. H460 cells were seeded at a density of 1×10^4 per well in96-well plates 24 hours prior to treatment. The cells were treated with different concentrations of IEP-PEG, IEP-PEG AA, free Indium chloride, free outer liposome and free etoposide phosphate for 36 h. The concentrations of indium chloride and free liposomes were maintained in equal mounts used for IEP-PEG and IEP-PEG AA. The medium was replaced with fresh medium containing 5% MTT (Biosynth Inc.) solution and incubated at 37° C. for another 4 h. The resulting formazan crystals were solubilized by adding 100 μL DMSO/Methanol (50:50) solution to each well. The absorbance at 570 nm wavelength was measured with a micro plate reader. Cell viability was calculated as the percentage of the absorbance of the treated cells to that of untreated cells.

H460 tumor = test: TUNEL and PCNA immunohistochemistry in H460 tumors; assay type: in vivo, mice; conditions: three daily IV injections, 5 mg/kg
Procedure: In vivo tumor cell apoptosis was determined by TdT-mediated dUTP Nick-End Labeling (TUNEL) assay. […] Twenty-four hours after the final injection, mice were sacrificed and tumors are fixed in 4% paraformaldehyde solution for 12 h before being embedded in paraffin and sectioned at a thickness of 5 μm. The TUNEL staining was performed as recommended by the manufacturer (Promega). DAPI mounting medium (Vector Laboratories, Inc., Burlingame, Calif.) was dropped on the sections for nucleus staining. Images of TUNEL-stained tumor sections were captured with a fluorescence microscope (Nikon Corp., Tokyo, Japan). The percentage of apoptotic cells was obtained by dividing the number of apoptotic cells(TUNEL positive cells shown as green dots) from the number of total cells(blue nuclei stained by DAPI, not shown) in each microscopic field, and 10 representative microscopic fields were randomly selected in each treatment group for this analysis. Proliferation of tumor cells after the aforementioned treatments and dosing schedule was detected by immunohistochemistry, using an antibody against proliferating cell nuclear antigen (PCNA) (1:200 dilution, Santa Cruz). The immunohistochemistry was performed using a mouse-specific HRP/DAB detection IHC kit as recommended by the manufacturer (Abcam, Cambridge, Mass.). […]

[9] = tested on: H460 subcutaneous xenograft; test: Tumor growth inhibition study, H460 xenograft; assay type: in vivo, mice; conditions: IV every other day, EP 5 mg/kg
Procedure: A tumor growth inhibition study was completed on H460 subcutaneous xenograft mouse models. Mice were inoculated with 5×10^6 […] by subcutaneous injection. Treatment was started when the tumor volumes reached about 100-150mm^3. The mice were randomly assigned into treatment groups (n=5), and intravenously injected different formulations, including […] and free EP. Four injections were performed every other day for a total of 4 injections at an EP dose of 5 mg/kg. Tumor sizes were measured every other day with calipers across their two perpendicular diameters, and the tumor volume was calculated using the following formula: […] Body weight of each mouse is recorded every other day. Humane sacrifice of mice was performed when tumors reached 20 mm in one dimension.

SMILES	tumor growth [1]	apoptotic cells in the untreated cell population (A375M cells [2])	accumulation in the tumors [3]	apoptosis in tumor (TUNEL) (1205Lu xenograft tumors) [%]	tumor growth (1205Lu xenograft tumors; weekly IV)	AST and ALT functional parameters ([4]; A375M study, FIG. 33)	ALT ([4]; four-dose treatment, mean ± SD) [U/L]	AST ([4]; four-dose treatment, mean ± SD) [U/L]	BUN ([4]; four-dose treatment, mean ± SD) [mg/dL]	IC50 (1205Lu cells) [µM]	damage of other major organs (H&E) [5]	IC50 (A375M cells [6]) [µM]	cells at G2/M phase (H460 cells [7])	increase in the 89 kDa PARP-1 cleavage product (PARP-1)	caspases 3 and 7 activity relative to untreated control (caspase-3/7)	cell viability / toxicity (MTT) (H460 cells [8])	PCNA positive cells in tumor sections (H460 tumor)	tumor growth [9]
N.N.[Cl][Pt][Cl] [CDDP, cis-diaminedichloroplatinum(II)]	ineffective; also recorded: not effective at all	less than 6%	1.2 % of the injected dose per gram	6.3	partial effect	fall within the normal range	54.3 ± 9.7	105.7 ± 27.1	25.7 ± 0.6	12.4	no toxicities in heart and lung	10.2	–	–	–	–	–	–
[Cl-].[Cl-].[Cl-].[In+3] [Indium chloride]	–	–	–	–	–	–	–	–	–	–	–	–	no discernable effect	no effect	no effect	no effect on viability	–	–
COc1cc([C@@H]2c3cc4c(cc3[C@@H](O[C@@H]3O[C@@H]5CO[C@@H](C)O[C@H]5[C@H](O)[C@H]3O)[C@H]3COC(=O)[C@H]23)OCO4)cc(OC)c1OP(=O)(O)O [EP, Etoposide phosphate]	–	–	–	–	–	–	–	–	–	–	–	–	About 50%	readily detectable	4 fold	dose-dependent toxicity	75-80%	minimal impact on tumor growth
